One experiment deals with T1, 5-lipoxygenase (Rattus norvegicus, UniProt P12527).
T1 construct: Rat Basophilic Leukemia Cell Homogenate (RBL-1) serves as a 5-lipoxygenase enzyme source; endogenous in cells; host or cells: RBL-1 (rat basophilic leukemia) cells, 100,000×g supernatant of homogenate
T1 sequence (P12527 1-673): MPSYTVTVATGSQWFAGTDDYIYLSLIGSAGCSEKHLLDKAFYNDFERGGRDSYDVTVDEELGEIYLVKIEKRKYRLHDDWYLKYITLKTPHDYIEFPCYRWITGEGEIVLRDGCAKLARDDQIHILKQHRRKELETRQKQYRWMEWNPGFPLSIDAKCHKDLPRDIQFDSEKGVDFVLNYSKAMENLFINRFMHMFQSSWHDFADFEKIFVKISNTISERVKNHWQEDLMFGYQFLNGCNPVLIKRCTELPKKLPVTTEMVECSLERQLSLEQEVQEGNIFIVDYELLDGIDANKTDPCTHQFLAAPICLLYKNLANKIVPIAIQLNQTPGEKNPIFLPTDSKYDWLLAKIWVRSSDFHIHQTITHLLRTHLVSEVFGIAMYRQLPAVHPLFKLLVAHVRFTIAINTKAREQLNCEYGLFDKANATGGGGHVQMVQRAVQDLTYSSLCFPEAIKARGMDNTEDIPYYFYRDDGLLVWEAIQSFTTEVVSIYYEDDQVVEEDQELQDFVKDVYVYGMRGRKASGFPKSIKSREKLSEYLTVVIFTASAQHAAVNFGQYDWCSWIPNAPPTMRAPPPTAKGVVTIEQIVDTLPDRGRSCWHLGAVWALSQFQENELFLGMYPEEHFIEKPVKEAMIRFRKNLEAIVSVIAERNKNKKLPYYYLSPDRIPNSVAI
The experiment can be described thus: Inhibition of 5-lipoxygenase, in vitro (5-HETE synthesis from [1-14C]-arachidonic acid, RBL-1 supernatant). It counts as biochemical. The settings on record: for IC50: RBL-1 100,000×g supernatant. Here is the method:
Inhibition of 5-lipoxygenase, in vitro:
anti-inflammatory, anti-allergy activities.
The 100,000×g supernatant fraction of Rat Basophilic Leukemia Cell Homogenate (RBL-1) serves as a 5-lipoxygenase enzyme source. The enzyme is incubated with [1-^14 C)-arachidonic acid and Ca++ in the presence and absence of test compound. The product of 5-lipoxygenase, 5-hydroxyeicosatetraenoic acid (5-HETE), is separated by thin-layer chromatography and measured by radioactivity. A compound inhibiting 5-HETE synthesis by 30% or more is considered active at that concentration.

Experiment [1] has as its system FMLP-stimulated human neutrophils. In words: Human neutrophil superoxide generation, FMLP-stimulated (cytochrome C reduction). It counts as cell-based. The settings on record: for IC50: read-out: Inhibition of FMLP Induced Superoxide IC50. The method, then:
Human neutropil suproxide generation: Superoxide generation by formyl-methionyl-leucyl-phenylalanine (FMLP)-stimulated neutrophils was quantitated by the reduction of cytochrome C (Badwey, J. A., Curnutte, J. T. and Karnovsky, M. L., cis-Polyunsaturated fatty acids induce high levels of superoxide production by human neutrophils. J. Biol. Chem. 256: 12640-12643, 1981.) To 5 million neutrophils in 2.85 ml of Krebs-Ringer phosphate buffer, pH 7.2, 50 μl of inhibitor (in 10% DMSO/buffer), and 50 ul ferricytochrome C (5 mM, stock) were added and preincubated for 3 minutes at 37° C. Absorption measurements at 550 nm were recorded at start of preincubation. Fifty ul FMLP (6 uM, stock) was added to initiate reaction. A plateau was reached within 3 minutes and this reading--initial reading (before addition of FMLP) was used to calculate nanomoles of superoxide generated based on a molar extinction coefficient of 2.1×10^4 cm^-1 mole^-1.
Isolation of human neutrophils: Human neutrophils were isolated from freshly drawn blood of healthy donors. Two ml of 5% dextran (MW 200,000-300,000) in saline was added to 10 ml aliquots of blood, mixed and placed upright for 45 min. at 37° C. Approx. 8-10 ml of the plasma-white cell suspension from the dextran sedimentation was layered on 3 ml of Ficol-paque in a ml tube and centrifuged at 400 g for 30 min. The supernate, containing plasma and platelets, was discarded by aspiration, and the pellet, containing predominantly neutrophils, was resuspended in 1 ml saline. The suspension was transferred to a clean tube, and pooled with other aliquots of blood treated similarly. The pooled suspension was centrifuged at 350 g for 5 min. and supernate discarded. The pellet was resuspended in 5 ml of 0.05% NaCl with a plastic Pasteur pipette for 25 seconds to lyse contaminating red cells, then 5 ml of 1.75% NaCl added to regain isotonicity. The red cell lysing procedure was repeated, the cells suspended in appropriate buffer (depending on assay) and counted.

[2] abbreviates: Neutrophil, human neutrophils, FMLP.

“Also recorded” adds a separate entry of the source. Read-outs that look alike come from different tables or passages of the source.

For orientation: IC50 means the concentration that gives 50% inhibition. For orientation: inhibition means the share of the control response that was lost under treatment. Low values mean little suppression, high ones strong suppression.

For the molecule `C[C@H](Sc1cc(C(C)(C)C)c(O)c(C(C)(C)C)c1)[C@@H](C)OCC(=O)O` (relative stereo) [Example 9, 11, (±)[2S*-[[3,5-bis(1,1-dimethyl-ethyl)-4-hydroxyphenyl]thio]-1R*-methylpropoxy]acetic acid], the IC50 turned out to be 4.9 µM against 5-lipoxygenase and 11 µM in experiment [1] (setting [2]).
On 5-lipoxygenase, `C[C@@H](OCC(=O)O)[C@H](C)[S+]([O-])c1cc(C(C)(C)C)c(O)c(C(C)(C)C)c1` (relative stereo) [Example 12, (±)[2S*-[[3,5-bis(1,1-dimethylethyl)-4-hydroxyphenyl]sulfinyl]-1R*- methylpropoxy]acetic acid] displayed an inhibition at 100 µM of 12%. Also, the IC50 in experiment [1] (setting [2]) is around 50 µM.
In the case of `C[C@@H](OCC(=O)O)[C@H](C)S(=O)(=O)c1cc(C(C)(C)C)c(O)c(C(C)(C)C)c1` (relative stereo) [Example 13, (±)[2S*-[[3,5-bis(1,1-dimethylethyl)-4-hydroxyphenyl]sulfonyl]-1R*- methylpropoxy]acetic acid], at 100 µM the inhibition against 5-lipoxygenase was 4%. Also, the IC50 in experiment [1] (setting [2]) is around 30 µM.
Take `C[C@H](Sc1cc(C(C)(C)C)c(O)c(C(C)(C)C)c1)[C@@H](C)OCC(=O)O` (single isomer, unassigned) [Example 17, (-)[2S*-[[3,5-bis(1,1-dimethylethyl)-4-hydroxyphenyl]thio]-1R*-methylpropoxy]acetic acid]: the concentration for half-maximal inhibition (IC50) against 5-lipoxygenase amounted to 4.3 µM; in experiment [1] (human neutrophils, FMLP), 10 µM.
Consider `C[C@H](Sc1cc(C(C)(C)C)c(O)c(C(C)(C)C)c1)[C@@H](C)OCC(=O)O` (single isomer, unassigned) [Example 18, (+)[2S*-[[3,5-bis(1,1-dimethylethyl)-4-hydroxyphenyl]thio]-1R*-methylpropoxy]acetic acid], for which the IC50 at 5-lipoxygenase was 3.5 µM; in experiment [1] (setting [2]), 10 µM.
The matching figures for `CC(C)(C)c1cc(SCCSCC(=O)O)cc(C(C)(C)C)c1O` [Example 4, 5, [[2-[[3,5-bis(1,1-dimethylethyl)-4-hydroxyphenyl]thio]ethyl]thio]aceticacid]: 3.3 µM and 5 µM.
In the case of `CN(CCc1ccccn1)C(=O)CCSc1cc(C(C)(C)C)c(O)c(C(C)(C)C)c1` [Formula IV, reference compound], at 5-lipoxygenase, the “5-lipoxygenase inhibition, result in words” value is “inhibited 5-lipoxygenase” and inhibition was half-maximal at 0.32 µM (IC50). Besides, the activation at 5 µM in experiment [1] (Homo sapiens, Neutrophil, at 5 μm, read-out: increase in superoxide generated by neutrophils) is 50%. Besides, the activation at 10 µM in experiment [1] (Homo sapiens, Neutrophil, at 10 μm, read-out: increase in superoxide generated by neutrophils) worked out at 227%. Also, the “FMLP Induced Superoxide, result in words” value in experiment [1] (human neutrophils, FMLP) is “Stimulates; also recorded: did not inhibit superoxide generation”.

These data come from patent US5064860A, “Method of inhibiting superoxide generation” (G. D. Searle & Co., priority 1990, dated 1991).
